This is an account of results in patent EP4790046A1, “NOVEL COMPOUND DERIVED FROM MYRISTICA FRAGRANS, AND ANTICANCER COMPOSITION COMPRISING SAME” (Korea Institute of Science and Technology, priority 2023, dated 2025).

One data set concerns AGS. The data set can be described thus: alamarBlue cell viability (survival rate, IC50), AGS. As to conditions: Homo sapiens; AGS (gastric cancer), compound 10 µM, 48 hours; read-out: Cancer cell line survival rate (%). It counts as cell-based. The source says: (§1) A p-value < 0.05 was considered statistically significant.
The test system of a further data set is 23132/87. Nature of the data set: alamarBlue cell viability (survival rate, IC50), 23132/87. The data set is classed as cell-based. As to conditions: 23132/87 (gastric cancer), compound 10 µM, 48 hours; read-out: Cancer cell line survival rate (%).
Description: as §1
Background: Resazurin is reduced to fluorescent resorufin, in cell work by metabolically active cells.

The next data set concerns SNU-719. Nature of the data set: alamarBlue cell viability (survival rate, IC50), SNU-719. The data set is classed as cell-based. The settings on record: SNU-719 (gastric cancer), compound 10 µM, 48 hours; read-out: Cancer cell line survival rate (%).
Description: as §1

In the next data set the test system is SNU-81. Nature of the data set: alamarBlue cell viability (survival rate, IC50), SNU-81. It counts as cell-based. The settings on record: SNU-81 (colorectal cancer), compound 10 µM, 48 hours; read-out: Cancer cell line survival rate (%).
Description: as §1

The next data set has as its system SNU-C5. Nature of the data set: alamarBlue cell viability (survival rate, IC50), SNU-C5. The data set is classed as cell-based. As to conditions: SNU-C5 (colorectal cancer), compound 10 µM, 48 hours; read-out: Cancer cell line survival rate (%).
Description: as §1

A further data set relates to SW48. The data set can be described thus: alamarBlue cell viability (survival rate, IC50), SW48. It counts as cell-based. The settings on record: Homo sapiens; SW48 (colorectal cancer), compound 10 µM, 48 hours; read-out: Cancer cell line survival rate (%).
Description: as §1

Another data set deals with SNU201. The data set can be described thus: alamarBlue cell viability (survival rate), SNU201. It counts as cell-based. The settings on record: SNU201 (glioblastoma), compound 10 µM, 48 hours; read-out: Cancer cell line survival rate (%).
Description: as §1

For the next data set, the system named is SNU466. Nature of the data set: alamarBlue cell viability (survival rate), SNU466. The data set is classed as cell-based. As to conditions: SNU466 (glioblastoma), compound 10 µM, 48 hours; read-out: Cancer cell line survival rate (%).
Description: as §1

For the next data set, the system named is HepG2. Nature of the data set: alamarBlue cell viability (survival rate), HepG2. The data set is classed as cell-based. As to conditions: Homo sapiens; HepG2 (liver cancer), compound 10 µM, 48 hours; read-out: Cancer cell line survival rate (%).
Description: as §1

The test system of a further data set is MiaPaCa-2. The data set can be described thus: alamarBlue cell viability (survival rate), MiaPaCa-2. It counts as cell-based. The settings on record: Homo sapiens, MIA PaCa-2; MiaPaCa-2 (pancreatic cancer), compound 10 µM, 48 hours; read-out: Cancer cell line survival rate (%).
Description: as §1

The test system of data set [1] is various cancer cell lines. Nature of the data set: alamarBlue cell viability, statements across the cell line panel. As to conditions: for anticancer activity: various cancer cell lines.
Description: AGS, SW48, HepG2, and MiaPaCa-2 was purchased from ATCC (American Type Culture Collection, USA), SNU cell lines from the Korean Cell Line Bank (KCLB, Korea), and 23132/87 from the Leibniz Institute DSMZ - German Collection of Microorganisms and Cell Cultures GmbH (DSMZ, Germany). All cell lines were cultured in RPMI-1640 medium (HyClone, USA) supplemented with 10% FBS (Gibco, USA) and 1% penicillin-streptomycin (HyClone, USA) under conditions of 5% CO2, 37°C.
Cells were seeded at a density of 5 × 10^3cells/well in a 96-well plate for 24 hours, then treated with the compound at an appropriate concentration (10 µM) for 48 hours. After treatment, alamarBlue reagent was added at a volume ratio of 1/10 of the treatment volume and incubated for 4 hours in a 37°C cell incubator (protected from direct light). Cell viability was then determined by measuring absorbance values at 570 nm and 600 nm using a microplate reader. The anticancer effects of candidate compounds were evaluated by assessing the cell viability (%) of cells treated at specific concentrations and the half-maximal inhibitory concentration (IC50) of each natural product. Doxorubicin and oxaliplatin were used as positive controls for gastric and colorectal cancer, respectively.
Statistical analysis was performed using R software (version 4.2.2) (R Core Team). Differences between groups were assessed using student's t-test or 1-way ANOVA followed by post-hoc Tukey HSD test. A p-value < 0.05 was considered statistically significant.
Further, to measure the IC50 values against six cancer cell lines.

Take `C=CCc1cc(OC)c(O[C@H](C)[C@H](Oc2cc(CCCCCCCCC(=O)c3c(O)cccc3O)ccc2O)c2ccc(O)c(OC)c2)c(OC)c1` [Compound 11, Myricone L]: the viability at 10 µM with AGS turned out to be 20.3%; in the data set with 23132/87, 19%; in the data set with SNU-719, 12.5%; in the data set with SNU-81, 92.5%; with SNU-C5 it was 13.4%; in the data set with SW48 it was 5.57%. In addition, the viability at 10 µM in the data set with SNU201 stood at 32.8%; with SNU466 it was 0.52%; with HepG2 it was 25.3%; in the data set with MiaPaCa-2, 22%. The cytotoxic effects result in [1] (gastric cancer cell lines and colorectal cancer cell lines, 10 µM, 48 hours) is given as “excellent cytotoxic effects”. Moreover, the anticancer activity result in data set [1] is listed as “high anticancer activity”.
Turning to `C=CCc1cc(OC)c(OC(C)C(Oc2cccc(O)c2C(=O)CCCCCCCCc2ccc(O)cc2)c2ccc(O)c(OC)c2)c(OC)c1` (stereo not shown) [Compound 12, Myricone M], the viability at 10 µM turned out to be 7.89% in the data set with AGS; 0.67% in the data set on 23132/87; 0.53% with SNU-719; 2.27% in the data set with SNU-81; 1.98% in the data set with SNU-C5; 2.52% with SW48. Besides, the viability at 10 µM amounted to 0.75% in the data set with SNU201, 0.64% in the data set on SNU466, 1.23% in the data set with HepG2 and 3.46% in the data set on MiaPaCa-2. Further, the anticancer activity entry in data set [1] is “high anticancer activity”.
On to `COc1cc(C(c2ccc(O)c(C(=O)CCCCCCCCc3ccc(O)c(O)c3)c2O)C(C)C(C)Cc2ccc3c(c2)OCO3)ccc1O` (stereo not shown) [Compound 14, Myricone O], for which the viability at 10 µM came to 81.4% with AGS; 78.2% with 23132/87; 71.6% with SNU-719; 104% in the data set on SNU-81; 18.8% with SNU-C5; 31.1% in the data set with SW48. For the same compound, the viability at 10 µM in the data set with SNU201 was found to be 101%; with SNU466, 56.1%; with HepG2 it was 67%; with MiaPaCa-2 it was 87.8%. Besides, the anticancer activity entry in data set [1] is recorded as “high anticancer activity”.
Take `COc1cc(CC(C)C(C)C(c2ccc(O)c(OC)c2)c2ccc(O)c(C(=O)CCCCCCCCc3ccc(O)c(O)c3)c2O)ccc1O` (stereo not shown) [Compound 15, Myricone P]: the viability at 10 µM in the data set on AGS worked out at 8.49%; in the data set with 23132/87, 1.45%; in the data set with SNU-719, 2.14%; with SNU-81, 6.63%; in the data set with SNU-C5 it was 2.62%; in the data set with SW48, 3.93%. For the same compound, the viability at 10 µM came to 31.4% in the data set on SNU201, 0.99% in the data set on SNU466, 3.18% in the data set with HepG2 and 4.32% in the data set with MiaPaCa-2. Besides, the anticancer activity result in data set [1] is listed as “high anticancer activity”.
As for `COc1cc([C@H]2Oc3c(OC)cc(/C=C/Cc4cc(O)c(O)cc4CCCCCCCCC(=O)c4c(O)cccc4O)cc3[C@@H]2C)ccc1O` [Compound 17, Myricone Q], the viability at 10 µM in the data set with AGS is 80.5%; with 23132/87, 85%; in the data set with SNU-719, 54.9%; in the data set with SNU-81, 113%; in the data set with SNU-C5 it was 58.5%; with SW48, 60.2%. Moreover, the viability at 10 µM amounted to 105% in the data set with SNU201, 45.6% in the data set with SNU466, 108% with HepG2 and 59.9% in the data set with MiaPaCa-2. Besides, the anticancer activity entry in [1] is “high anticancer activity”.
`COc1ccc(/C=C/Cc2ccc(O)c(C(=O)CCCCCCCCc3ccc(O)c(O)c3)c2O)cc1OC` [Compound 21, Myricone Z]: the viability at 10 µM in the data set with AGS came out at 6.86%; in the data set with 23132/87 it was 2.4%; in the data set on SNU-719, 4.6%; with SNU-81, 33.6%; in the data set on SNU-C5, 6.53%; with SW48, 3.51%. Also, the viability at 10 µM stood at 67.8% in the data set with SNU201, 0.95% with SNU466, 6.05% in the data set on HepG2 and 7.58% in the data set on MiaPaCa-2. The anticancer activity result in [1] was “high anticancer activity”.
